Converted amounts (≈) assume the structure as drawn.
Experiments:
Assay type in all cases: functional
Staphylococcus aureus = test: Antibacterial activity against Staphylococcus aureus DSM 799 incubated for 24 hrs by disk diffusion method
Escherichia coli = test: Antibacterial activity against Escherichia coli DSM 682 incubated for 24 hrs by disk diffusion method
Bacillus subtilis = test: Antibacterial activity against Bacillus subtilis DSM 1088 incubated for 24 hrs by disk diffusion method
Pseudomonas aeruginosa = test: Antibacterial activity against Pseudomonas aeruginosa DSM 22644 incubated for 24 hrs by disk diffusion method
Streptococcus pyogenes = test: Antibacterial activity against Streptococcus pyogenes DSM 11728 incubated for 24 hrs by disk diffusion method

| Compound | MIC (Staphylococcus aureus) | MIC (Escherichia coli) | MIC (Bacillus subtilis) | MIC (Pseudomonas aeruginosa) | MIC (Streptococcus pyogenes) | MIC (Staphylococcus aureus; DSM 799, 24 h) | MIC (Escherichia coli; DSM 682, 24 h) | MIC (Bacillus subtilis; DSM 1088, 24 h) | MIC (Pseudomonas aeruginosa; DSM 22644, 24 h) | MIC (Streptococcus pyogenes; DSM 11728, 24 h) |
| --- | --- | --- | --- | --- | --- | --- | --- | --- | --- | --- |
| GENTAMICIN | 1 µg/mL | 1 µg/mL | 1 µg/mL | 1 µg/mL | 10 µg/mL |  |  |  |  |  |
| CC(C)[C@@H](C)/C=C/[C@@H](C)[C@H]1CC[C@H]2C3=CC(=O)[C@@]4(O)C[C@@H](O)CC[C@]4(C)[C@@]3(O)CC[C@]12C |  |  |  |  |  | > 10 µg/mL | > 10 µg/mL | 5 µg/mL (≈ 11.2 µM) | > 10 µg/mL | > 10 µg/mL |
| CC(C)=CC[C@H](O)[C@@H](C)[C@H]1CC[C@@]2(C)c3ccc4c(c3C[C@@H](O)[C@]12C)[C@@H](O)C[C@H](O)C4(C)C |  |  |  |  |  | 5 µg/mL (≈ 10.9 µM) | 5 µg/mL (≈ 10.9 µM) | 2 µg/mL (≈ 4.38 µM) | 2 µg/mL (≈ 4.38 µM) | 0.1 µg/mL (≈ 0.219 µM) |
| CO[C@]12CC[C@]3(C)[C@@H]([C@H](C)/C=C/[C@H](C)C(C)C)CC[C@H]3C1=CC(=O)O2 |  |  |  |  |  | > 10 µg/mL | > 10 µg/mL | > 10 µg/mL | > 10 µg/mL | > 10 µg/mL |
| CC(C)[C@@H](C)/C=C/[C@@H](C)[C@H]1CC[C@@]2(O)C3=CC(=O)[C@@]4(O)C[C@@H](O)CC[C@]4(C)[C@@]3(O)CC[C@]12C |  |  |  |  |  | > 10 µg/mL | > 10 µg/mL | > 10 µg/mL | > 10 µg/mL | > 10 µg/mL |
| CC(C)[C@@H](C)/C=C/[C@@H](C)[C@H]1CC[C@H]2/C(=C/C(=O)O[C@]3(C)CCC=CC3=O)C(=O)CC[C@]12C |  |  |  |  |  | 1 µg/mL (≈ 2.27 µM) | > 10 µg/mL | 5 µg/mL (≈ 11.3 µM) | > 10 µg/mL | > 10 µg/mL |
| CN[C@@H]1[C@H](O[C@H]2[C@H](O[C@H]3[C@H](O)[C@@H](O)[C@H](N=C(N)N)[C@@H](O)[C@@H]3N=C(N)N)O[C@@H](C)[C@]2(O)C=O)O[C@@H](CO)[C@H](O)[C@H]1O [STREPTOMYCIN] |  |  |  |  |  | 5 µg/mL (≈ 8.6 µM) | 1 µg/mL (≈ 1.72 µM) | 5 µg/mL (≈ 8.6 µM) | 10 µg/mL (≈ 17.2 µM) | > 10 µg/mL |
| CC(C)[C@@H](C)/C=C/[C@@H](C)[C@H]1CC[C@H]2C3=C[C@H](O)[C@@]4(O)C[C@@H](O)CC[C@]4(C)C3=CC[C@]12C |  |  |  |  |  | > 10 µg/mL | > 10 µg/mL | > 10 µg/mL | > 10 µg/mL | > 10 µg/mL |
| CC(C)[C@@H](C)/C=C/[C@@H](C)[C@H]1CCC2C3=CC(=O)O[C@@]3(O)CC[C@@]21C (stereo not given in full) [DEMETHYLINCISTEROL A3] |  |  |  |  |  | > 10 µg/mL | > 10 µg/mL | > 10 µg/mL | > 10 µg/mL | > 10 µg/mL |

From ChEMBL document CHEMBL3593195, “Endophytic Diaporthe sp. LG23 Produces a Potent Antibacterial Tetracyclic Triterpenoid” (2015)
